Results from ChEMBL document CHEMBL4371047, “Effect of α-Methoxy Substitution on the Anti-HIV Activity of Dihydropyrimidin-4(3 H)-ones” (J Med Chem, 2019).

What was measured:
[1] = system: Human immunodeficiency virus 1; assay: Antiviral activity against wild type HIV 1 NL4-3 infected in human MT4 cells assessed as inhibition of virus-induced cytopathic effect after 5 days by MTT assay; assay type: functional, organism-based; conditions: Human immunodeficiency virus 1, NL4-3, MT4, 120 h
[2] = Cytotoxicity against human MT4 cells assessed as reduction in cell viability after 5 days by MTT assay; assay type: cell-based
[3] = system: Human immunodeficiency virus 1; assay: Antiviral activity against HIV-1 IRLL98 harboring reverse transcriptase M41L, D67N, Y181C, M184V, R211K, and T215Y mutants infected in human MT4 cells assessed as inhibition of virus-induced cytopathic effect after 5 days by MTT assay; assay type: functional, organism-based; conditions: Human immunodeficiency virus 1, IRLL98, MT4, 120 h
[4] = system: Human immunodeficiency virus 1; assay: Antiviral activity against HIV 1 harboring reverse transcriptase Y181C mutant infected in human MT4 cells assessed as inhibition of virus-induced cytopathic effect after 5 days by MTT assay; assay type: functional, organism-based; conditions: Human immunodeficiency virus 1, MT4, 120 h
[5] = system: Human immunodeficiency virus 1; assay: Antiviral activity against HIV-1 harboring reverse transcriptase Y188L mutant infected in human MT4 cells assessed as inhibition of virus-induced cytopathic effect after 5 days by MTT assay; assay type: functional, organism-based; conditions: Human immunodeficiency virus 1, MT4, 120 h
[6] = system: Human immunodeficiency virus 1; assay: Antiviral activity against HIV-1 harboring reverse transcriptase K103N mutant infected in human MT4 cells assessed as inhibition of virus-induced cytopathic effect after 5 days by MTT assay; assay type: functional, organism-based; conditions: Human immunodeficiency virus 1, MT4, 120 h
[7] = system: Human immunodeficiency virus 1; assay: Resistance index, ratio of EC50 for HIV-1 IRLL98 harboring reverse transcriptase M41L, D67N, Y181C, M184V, R211K, and T215Y mutants to EC50 for wild type HIV-1 NL4-3; assay type: functional
[8] = system: Human immunodeficiency virus 1; assay: Resistance index, ratio of EC50 for HIV-1 harboring reverse transcriptase Y181C mutant to EC50 for wild type HIV-1 NL4-3; assay type: functional
[9] = system: Human immunodeficiency virus 1; assay: Resistance index, ratio of EC50 for HIV-1 harboring reverse transcriptase Y188L mutant to EC50 for wild type HIV-1 NL4-3; assay type: functional
[10] = system: Human immunodeficiency virus 1; assay: Resistance index, ratio of EC50 for HIV-1 harboring reverse transcriptase K103N mutant to EC50 for wild type HIV-1 NL4-3; assay type: functional
[11] = system: Human immunodeficiency virus 1; assay: Resistance index, ratio of ID50 for recombinant HIV-1 His-tagged reverse transcriptase p66/p51 K103N mutant to ID50 for recombinant wild type HIV-1 reverse transcriptase His-tagged p66/p51
[12] = system: Human immunodeficiency virus 1; assay: Resistance index, ratio of ID50 for recombinant HIV-1 His-tagged reverse transcriptase p66/p51 Y181I mutant to ID50 for recombinant wild type HIV-1 reverse transcriptase His-tagged p66/p51
[13] = system: Human immunodeficiency virus 1; assay: Resistance index, ratio of ID50 for recombinant HIV-1 His-tagged reverse transcriptase p66/p51 L100I mutant to ID50 for recombinant wild type HIV-1 reverse transcriptase His-tagged p66/p51
[14] = target: Human immunodeficiency virus type 1 reverse transcriptase (Human immunodeficiency virus 1) (UniProt Q72547)
Description: Inhibition of recombinant wild type HIV-1 His-tagged reverse transcriptase p66/p51 expressed in Escherichia coli assessed as reduction in [3H]dTTP incorporation using poly(rA)/oligo(dT) as template/primer after 20 mins by scintillation counting analysis

[15] = system: Human immunodeficiency virus type 1 reverse transcriptase (Human immunodeficiency virus 1), Q72547 [K103N]
Description: Inhibition of recombinant HIV-1 His-tagged reverse transcriptase p66/p51 K103N mutant expressed in Escherichia coli assessed as reduction in [3H]dTTP incorporation using poly(rA)/oligo(dT) as template/primer after 20 mins by scintillation counting analysis

[16] = system: Human immunodeficiency virus type 1 reverse transcriptase (Human immunodeficiency virus 1), Q72547 [Y181I]
[17] = system: Human immunodeficiency virus type 1 reverse transcriptase (Human immunodeficiency virus 1), Q72547 [L100I]
[18] = Therapeutic index, ratio of CC50 for human MT4 cells to EC50 for HIV-1 NL4-3 infected in human MT4 cells; assay type: toxicity, cell-based; conditions: read-out: Ratio CC50/EC50
[19] = system: Human immunodeficiency virus 1; assay: Antiviral activity against HIV-1 harboring reverse transcriptase K103N/Y181C double mutant infected in human MT4 cells assessed as inhibition of virus-induced cytopathic effect after 5 days by MTT assay; assay type: functional, organism-based; conditions: Human immunodeficiency virus 1, MT4, 120 h
[20] = system: Human immunodeficiency virus 1; assay: Resistance index, ratio of EC50 for HIV-1 harboring reverse transcriptase K103N/Y181C double mutant to EC50 for wild type HIV-1 NL4-3; assay type: functional
[21] = system: Human immunodeficiency virus 1; assay: Potency index, ratio of EFV EC50 to compound EC50 for HIV-1 IRLL98 harboring reverse transcriptase M41L, D67N, Y181C, M184V, R211K, and T215Y mutants infected in human MT4 cells; assay type: functional
[22] = system: Human immunodeficiency virus 1; assay: Potency index, ratio of TMC120 EC50 to compound EC50 for HIV-1 IRLL98 harboring reverse transcriptase M41L, D67N, Y181C, M184V, R211K, and T215Y mutants infected in human MT4 cells; assay type: functional
[23] = system: Human immunodeficiency virus 1; assay: Potency index, ratio of EFV EC50 to compound EC50 for HIV-1 harboring reverse transcriptase K103N/Y181C double mutant infected in human MT4 cells; assay type: functional

Structure (SMILES) | EC50 [1] [nM] | CC50 at 120 h [2] [µM] | EC50 [3] [nM] | EC50 [4] [nM] | EC50 [5] [nM] | EC50 [6] [nM] | Ratio EC50 [7] | Ratio EC50 [8] | Ratio EC50 [9] | Ratio EC50 [10] | Ratio [11] | Ratio [12] | Ratio [13] | ID50 [14] [nM] | ID50 [15] [nM] | ID50 [16] [nM] | ID50 [17] [nM] | selectivity ratio [18] | EC50 [19] [nM] | Ratio EC50 [20] | also measured
COC(c1nc(SC2CCCC2)[nH]c(=O)c1C)c1c(F)cccc1F (stereo unspecified) | 29 | 34.3 | 840 | 2700 | 3200 | 2800 | 29 | 93 | 110 | 97 | 19 | 41 | 65 | 14 | 260 | 570 | 910 |  |  |  | 
Cc1c(C(C)c2c(F)cccc2F)nc(NC2CCCC2)[nH]c1=O (stereo unspecified) | 25 | 90 | 85 | 220 | 950 | 410 | 3 | 9 | 38 | 16 |  | 57 | 17 | 30 | 380 | 1700 | 500 | 3600 | 420 | 17 | 
COC(c1nc(SC(C)C)[nH]c(=O)c1C)c1c(F)cccc1F (stereo unspecified) | 17 | > 25 | 520 | 560 | 2900 | 1100 | 31 | 33 | 171 | 65 | 16 | 1140 | 71 | 8 | 130 | 9100 | 570 | > 1470 |  |  | 
CCC(C)Sc1nc(C(OC)c2c(F)cccc2Cl)c(C)c(=O)[nH]1 (stereo unspecified) | 0.2 | 52.8 | 0.6 | 27 | 55 | 1 | 3 | 135 | 275 | 5 | 13 | 711 | 133 | 0.9 | 12 | 640 | 120 | 264000 | 28 | 140 | Ratio EC50 [21]: 2000 - 3000; Ratio EC50 [22]: 3 - 10; Ratio EC50 [23]: 5 - 15
Cc1ccnc2c1NC(=O)c1cccnc1N2C1CC1 [NEVIRAPINE] |  | > 7 |  |  | > 7000 |  |  |  |  |  |  |  |  |  |  | 33000 to 35000 | 8500 to 9000 |  | > 7000 |  | 
CCC(C)Sc1nc(C(C)c2c(F)cccc2Cl)c(C)c(=O)[nH]1 (stereo unspecified) |  | > 1.5 | 95 |  |  |  | 317 |  |  |  |  |  |  |  |  |  |  | > 5000 | 410 | 1367 | 
CCCNc1nc(C(OC)c2c(F)cccc2F)c(C)c(=O)[nH]1 (stereo unspecified) | 5 | 81.4 | 16 | 98 | 3500 | 32 | 3 | 20 | 700 | 6 | 5 | 42 | 24 | 40 | 220 | 1700 | 980 | 16300 |  |  | 
CCCN(C)c1nc(C(C)c2c(F)cccc2F)c(C)c(=O)[nH]1 (stereo unspecified) | 1.9 | > 78 | 7 | 17 | 49 | 16 | 4 | 9 | 26 | 9 | 6 | 40 | 6 |  |  |  |  | > 41000 |  |  | 
O=C1Nc2ccc(Cl)cc2[C@@](C#CC2CC2)(C(F)(F)F)O1 [EFAVIRENZ] |  | > 3 | 630 | 44 |  | 390 |  |  |  |  |  |  |  |  |  |  |  |  | 400 |  | 
COC(c1nc(SC(C)C)[nH]c(=O)c1C)c1c(F)cccc1Cl (stereo unspecified) | 0.3 to 0.5 | > 70 | 1 | 25 to 45 | 52 to 72 | 6 to 8 | 2 | 83 - 90 | 144 - 173 | 16 - 20 | 18 to 20 | 320 to 375 | 190 to 225 | 4 to 5 | 81 to 89 | 1500 to 1600 | 900 to 950 | 140000 to 233000 | 46 | 92 | Ratio EC50 [21]: 2000 - 3000; Ratio EC50 [22]: 3 - 10; Ratio EC50 [23]: 5 - 15
CCC(C)Sc1nc(C(OC)c2c(F)cccc2F)c(C)c(=O)[nH]1 (stereo unspecified) | 9 | 27.2 | 240 | 370 | 2800 | 1600 | 27 | 41 | 311 | 178 | 500 | 1800 | 93 | 3 | 1500 | 5400 | 280 | 3020 |  |  | 
Cc1c(C(C)c2c(F)cccc2Cl)nc(SC(C)C)[nH]c1=O (stereo unspecified) |  | > 15 | 75 |  |  |  | 1875 |  |  |  |  |  |  |  |  |  |  | > 375000 | 270 | 6750 | 
Cc1c(C(C)c2c(F)cccc2F)nc(NC(C)C)[nH]c1=O (stereo unspecified) | 20 | 200 | 150 | 350 | > 10000 | 890 | 7 | 17 |  | 44 | 11 | 101 | 7 | 35 | 400 | 3520 | 250 | 10000 |  |  | 
COC(c1nc(NC(C)C)[nH]c(=O)c1C)c1c(F)cccc1F (stereo unspecified) | 14 | > 81.4 | 70 | 140 | 6600 | 230 | 5 | 10 | 471 | 16 | 11 | 33 | 19 | 57 | 620 | 1900 | 1100 | > 5810 |  |  | 
COC(c1nc(SC2CCCC2)[nH]c(=O)c1C)c1c(F)cccc1Cl (stereo unspecified) | 0.7 | 36.8 | 12 | 160 | 860 | 70 | 17 | 229 | 1229 | 100 | 21 | 543 | 329 | 7 | 150 | 3800 | 2300 | 52600 |  |  | 
Cc1cc(C#N)cc(C)c1Oc1nc(Nc2ccc(C#N)cc2)nc(N)c1Br [ETRAVIRINE] | 0.5 | 3.5 |  | 9 |  | 2 |  | 18 | 40 | 4 |  |  |  | 6 | 85 |  |  | 7000 |  | 38 | 
